The target of one assay is T1, ASIC3 G445C (Rattus norvegicus, UniProt O35240, G445C).
T1 construct: rASIC3 G445C co-expressed with wildtype ASIC3 at a 10:1 ratio in CHO-K1 cells; with wildtype ASIC3 (heteromultimeric channels)
T1 sequence (O35240 1-533 G445C): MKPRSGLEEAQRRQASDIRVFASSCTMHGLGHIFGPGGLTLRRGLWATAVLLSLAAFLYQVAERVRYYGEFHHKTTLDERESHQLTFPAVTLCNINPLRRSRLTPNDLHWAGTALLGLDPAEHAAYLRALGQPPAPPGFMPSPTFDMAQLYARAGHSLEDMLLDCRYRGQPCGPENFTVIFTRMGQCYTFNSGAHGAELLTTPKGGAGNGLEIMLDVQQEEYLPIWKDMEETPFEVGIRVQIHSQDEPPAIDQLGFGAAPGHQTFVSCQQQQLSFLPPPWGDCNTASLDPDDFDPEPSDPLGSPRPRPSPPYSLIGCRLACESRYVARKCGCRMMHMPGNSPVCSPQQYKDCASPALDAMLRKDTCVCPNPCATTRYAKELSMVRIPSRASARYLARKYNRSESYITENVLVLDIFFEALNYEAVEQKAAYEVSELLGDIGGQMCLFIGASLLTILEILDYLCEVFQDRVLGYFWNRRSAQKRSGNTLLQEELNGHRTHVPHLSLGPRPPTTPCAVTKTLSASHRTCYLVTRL
In words: whole-cell patch clamp, block of pH 6-evoked currents. In kind it is cell-based. The source says: whole-cell patch clamp, block of pH 6-evoked currents on ASIC3 G445C | G445C mutation partially blunted the inhibitory action of amiloride on ASIC3 currents when compared to wildtype ASIC3 channels

Assay [1] has as its target T2, Acid-Sensing Ion Channel 3 (ASIC3) (Rattus norvegicus, UniProt O35240).
T2 construct: Rat ASIC3 in pMT3 vector, expressed in CHO-K1 cells
T2 sequence (O35240 1-533): T1 sequence (O35240 1-533 G445C) with C445G
Described as above. In kind it is cell-based.

Residue numbers refer to the chain shown, from its start.

These results are taken from paper PMC8555766, “Paradoxical Potentiation of Acid-Sensing Ion Channel 3 (ASIC3) by Amiloride via Multiple Mechanisms and Sites Within the Channel” (Frontiers in Physiology, 2021).

For the compound `N=C(N)NC(=O)c1nc(Cl)c(N)nc1N` [amiloride], the IC50 turned out to be 17.3 µM on ASIC3 G445C and 18.6 µM in assay [1].
